Measurements as given in publication PMC10178166, “NanoLuc Luciferase as a Fluorogen-Activating Protein for GFP Chromophore Based Fluorogens” (International Journal of Molecular Sciences, 2023).
Read-outs that look alike come from different tables or passages of the source.

Biological target: T1, NanoLuc (Oplophorus gracilirostris, UniProt Q9GV45, A31E/A60N/A81I/F95D/I117V/K70R/L54V/L99Q/M102K/N193R/P142E/Q151K/Q38R/Q45L/V71I/Y165I)
T1 construct: Engineered 19 kDa subunit variant (NanoLuc, about 171 residues, no signal peptide)
Assay: spectrofluorometric titration
Type: binding
Text: spectrofluorometric titration on NanoLuc

T1 sequence (Q9GV45 28-196 with the stated changes): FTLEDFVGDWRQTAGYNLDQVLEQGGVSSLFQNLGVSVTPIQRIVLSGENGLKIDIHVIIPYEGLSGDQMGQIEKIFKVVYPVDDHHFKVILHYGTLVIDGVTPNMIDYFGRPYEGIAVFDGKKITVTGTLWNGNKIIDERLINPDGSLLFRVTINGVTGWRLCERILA

O=C1/C(=C/c2ccc[nH]2)N=C(/C=C/c2cccs2)N1Cc1ccccc1 (mixture of isomers) [4bh]
Kd (read-out: [drawing 2] / [drawing 4] / 4bh): 320 ± 20 nM

O=C1/C(=C/c2ccc[nH]2)N=C(/C=C/c2ccccc2)N1CCc1ccc(O)cc1 (mixture of isomers) [4cc]
Kd (read-out: [drawing 3] / [drawing 7] / 4cc): 550 ± 40 nM

O=C1/C(=C/c2ccc[nH]2)N=C(/C=C/c2ccccc2)N1Cc1ccccc1 (mixture of isomers) [4bc]
Kd (read-out: [drawing 2] / [drawing 5] / 4bc): 590 ± 40 nM
